Measured values reported in patent US20030157715A1, “Modulation of chromosome function by chromatin remodeling agents” (priority 2000, published 2003).
Where “and” joins values, the source holds several entries; their conditions need not be identical. Equal entries are not always repeated.

Legend:
[1] = molecular target: W9 probe (tandem repeats of an oligonucleotide with a 9 bp AT-tract); test: DNase I footprinting on probe W9; assay type: binding
Source text: DNase I cleavage pattern in the presence of P9 and P7. Ligand concentrations are indicated at the top of each lane. The position of each of the AT-tracts is indicated by square brackets. […] This probe is composed of head-to-tail tandem repeats of an oligonucleotide with a 9 bp AT-tract.
(§1) Synthetic oligonucleotides […] and […] were hybridized to obtain the W9 probe, oligomerized by ligation and digested with BamHI and BglII to obtain different tandem repeats. The following oligonucleotides were prepared identically: GAF31 is composed of the oligonucleotides […] and […] and, BrownI of oligonucleotides […] and […]. Fragments were purified on low-melt agarose gels and then cloned into a modified pSP64 vector, cut by BamHI and BglII. End-labeling was carried out following digestion with HindIII and a fill-in reaction with Klenow DNA polymerase. The labeled plasmid was cut with PvuII and the target fragments purified from low-melting agarose gels. The 657 bp EcoR1/Hinf1 fragment of the Drosophila histone SAR was cloned into the SmaI site of the modified pSP64 plasmid. This SAR probe was end-labeled following-digestion with EcoR1, then cut with ClaI and the resulting 347 bp fragment purified from low-melting agarose gels.
All reactions were performed in a total volume of 40 μl. A polyamide stock solution or buffer (for reference lanes) was added to an assay buffer containing 20 kcpm radiolabeled DNA, affording final concentrations of 10 mM Tris-HCl (pH 7.4), 10 mM KCl, 10 MM MgCl, 5 mM CaCl2, 0.5 mM EDTA, 0.5 mM EGTA, 1 mM DTT and 0.1% digitonine. The solutions were allowed to equilibrate for at least 2 h at room temperature. Footprinting reactions were initiated by the addition of 2 μl of a DNase stock solution (containing −100 μg DNase I in buffer) and allowed to proceed for 2 min at room temperature. The reactions were stopped by addition of 10 μl of a solution containing 1.25 M NaCl, 100 mM EDTA. Next, 5 μl of a 1% SDS solution was added, followed by 2 μl of a solution containing 1 μg poly(dA-dT), 1 μg salmon sperm DNA and 10 μg glycogen and the DNA was ethanol precipitated (20 min at −20 C.). The reactions were resuspended in 4 μl of 80% formamide loading buffer, denatured 10 min at 85 C., cooled on ice and electrophoresed on 8% polyacrylamide denaturing gels (5% cross-link, 8 M urea) at 30 W for 1 h. The gels were dried and exposed o/n at −70 C.

[2] = test system: variegating white reporter transgene flies (C3/2L, BL2/Y); test: P9 fed to flies with variegating white reporter transgene; assay type: in vivo, Drosophila melanogaster; conditions: transgene at the basis of chromosome 2L; data not shown
Source text: Although we favor the possibility that P9 and MATH20 reduce the spreading of heterochromatin toward w^m4 through long-range effects, we cannot completely rule out the possibility that a local binding site near the white gene (a local SAR) is involved. We attempted to address this issue by studying the effect of P9 on two different variegating miniwhite reporter genes called C3/2L and BL2/Y (Lu et al., 1996; Wallrath and Elgin, 1995). […] Nevertheless, we consider a local-acting mode less likely; the enormous target size of satellite III, 11 Mb versus 0.5 kb for a typical SAR, favors a long-range spreading model.

CACAA repeats = test: DNase I footprinting on CACAA repeats (Brown I probe); assay type: binding
Source text: A drawback of this binding model, as opposed to conventional 2:1 drug to DNA complexes, is that P31 is expected to bind degenerate GC and CG base pairs, albeit with different affinity. The consensus sequence can thus be defined as SWSWWSWSWW, where S stands for a G or C and W for A or T. To evaluate binding of P31 to CACAA repeats, we used a second probe that contains two of these repeats as well as five tandem GAGAA repeats. […] Again, it is observed than this molecule binds as a 1:1 drug to DNA complex in an orientation as indicated by arrowheads (FIG. 3A). We propose that special structural features of AT-tracts and GAGAA repeats might favor 1:1 DNA to drug complexes.
as §1, with “The 657 bp EcoR1/Hinf1 fragment of the Drosophila histone SAR was cloned into the SmaI site of the modified pSP64 plasmid. This SAR probe was end-labeled following-digestion with EcoR1, then cut with ClaI and the resulting 347 bp fragment purified from low-melting agarose gels.” left out

bw^D/bw^D; Ubx^1/+ flies = test: P31 fed to developing Ubx^1/+; bw^D flies; assay type: in vivo, Drosophila melanogaster
Source text: P31 enhances haltere-to-wing transformation in heterozygous bw^D/bw; Ubx^1/+ flies: The GAGA factor is know to bind to the promoter of Ubx and to stimulate its transcription in vitro (Biggin and Tjian, 1988) The Trl locus also genetically interacts with Ubx, since Trl^13C dominantly enhances the segmental transformation observed in Ubx heterozygotes. […] We asked, does P31 also chemically mimic the genetic interaction of Ubx and Trl^13C? To address this issue, we fed P31 to two genotypes, +/+; Ubx/+ and bw^D/bw^D; Ubx^1/+. The latter genotype was obtained by crossing bw^D/bw^D; st/st females and bw^D/bw^D Ubx^1/Tm3, sb males.
The progeny of these two genotypes raised in the presence of P31 were scored both for the A6 to A5 and the haltere-to-wing transformations as well as for the sex comb reduced phenotypes (Table 3). […] However, eight of them (out of approximately 100) reached a late pupae stage and thus could be dissected to inspect their morphology. […] This transformation was manifested by an enlarged size and gray color of the halteres, and also by the appearance of numerous bristles at the base of the halteres that are characteristic of the anterior wing margin. […] We conclude that the chemical mimicry by P31 in a bw^D genetic backgrounds extends to the genetic interaction of Trl^13C with Ubx.
The lethality of the progenies was calculated by counting the dead bodies and the total empty pupal shells. The A6 to A5 transformation was detected by bristles that form on abdominal segment A6 on males. All male adult flies obtained (˜50) were scored. Sex combs and halteres were individually inspected and photographed under the microscope (Axiophot, Zeiss) after dissecting at least 30 individuals and incubating them into 30 μl of 0.6 g/ml gum arabic; 4 g/ml chlorohydrate; 35% glycerol under a 24×24 mm coverslip as described (Ashburner, 1989). Since raising double heterozygous flies (Ubx^1/+; bw^D/+) led to lethality, we morphologically dissected eight late stage pupae after carefully removing the pupal envelope.

SMILES	affinity for AT-tracts of 9 Ws (in words) [1]	better affinity for W9 than P7 ([1]; P9 versus P7, footprints on W9) [fold]	Kd ([1]; apparent binding affinity, DNase I footprinting, probe W9, read-out: Kdapp W9)	suppression of PEV of a variegating white reporter transgene [2]	affinity for CACAA repeats relative to GAGAA repeats (CACAA repeats)	pupae with clear signs of haltere-to-wing transformation (bw^D/bw^D; Ubx^1/+ flies; bw^D/bw^D, Ubx^1/+, dissected late pupae)	A6 to A5 (bw^D/bw^D; Ubx^1/+ flies; fly stock Ubx^1/+, bw^D) [%]	Lethality (bw^D/bw^D; Ubx^1/+ flies; fly stock Ubx^1/+, bw^D) [%]	Sex comb (mean) (bw^D/bw^D; Ubx^1/+ flies; fly stock Ubx^1/+, bw^D)	Sex comb, range of teeth (bw^D/bw^D; Ubx^1/+ flies; fly stock Ubx^1/+, bw^D)	A6 to A5, number of bristles on A6 (bw^D/bw^D; Ubx^1/+ flies; fly stock Ubx^1/+, bw^D, dissected late pupae)	effect on development (in words) (bw^D/bw^D; Ubx^1/+ flies; in vivo)
CN(C)CCCNC(=O)CCNC(=O)c1cc(NC(=O)c2cc(NC(=O)c3cc(NC(=O)CCNC(=O)c4cc(NC(=O)c5cc(NC(=O)c6cccn6C)cn5C)cn4C)cn3C)cn2C)cn1C [Compound P9, PyPyPy-β-PyPyPy-β-Dp]	subnanomolar affinity	100	~0.75 nM and 0.75 nM	did not suppress PEV	–	–	–	–	–	–	–	–
CN(C)CCCNC(=O)CCNC(=O)c1nc(NC(=O)CCNC(=O)c2nc(NC(=O)CCNC(=O)c3cc(NC(=O)c4nc(NC(=O)CCNC(=O)c5nccn5C)cn4C)cn3C)cn2C)cn1C [Compound P31, Im-β-Im-Py-β-Im-β-Im-β-Dp]	–	–	–	–	approximately five fold lower affinity	five of eight	100	100	7.4	5-9	2-6	blocked their development completely
